Laboratory results as given in patent US4902699A, “Oxime of 1, 2, 5, 6-tetrahydropyridine compounds their use as medicaments and the compositions containing them” (Roussel Uclaf, priority 1987, dated 1990).
Counter-ions that a name gives are not always drawn. Like-named read-outs stand apart in the source and are kept apart here.

Legend:
[1] = system: male mice (CD1 Charles RAivers); assay: Variation of the body temperature (duration of action); assay type: in vivo
Protocol: (§1) The test is carried out on male mice (CD1 Charles RAivers) weighing 25-30 g, having fasted for 6 hours.
The temperature of the body is noted by means of a thermocouple inserted about 1.5 cm in the rectum and connected to an electric temperature recorder. […]
The duration of action of the products is determined, using the doses able to reduce the temperature by 1° to 1.5° C.

[2] = Solubility; assay type: physicochemical; conditions: for Solubility in water: H2O
[3] = Diarrhoeic activity; set-up: species or system mice; conditions: mouse, in vivo; oral route; dose which causes diarrhoea in 50% of the animals; read-out: DE50 (the source's name)
Protocol: The test is carried out on male mice (CD1 Charles Rivers) weighing […], after fasting for 6 hours. The product dissolved at 5% in methocel is administered by oral route by means of an oesophage probe.
Control animals receive only the excipient.
After treatment, the animals are placed separately in cages of which the base is covered with blotting paper, and they are put under observation for 30, 60, 120 and 180 minutes.
The sheets of absorbent paper are changed after each observation.
The consistency of the feces is evaluated according to the method of Randall and Baruth (Arch. Int. Pharmacodyn. 220, 94, 1976) according to the following scale of values.
1: feces slightly soft, with or without a damp halo
2: feces slightly soft, with a well defined circle of humidity.
3: feces soft with a large circle of humidity.
4: feces without consistency with a very large circle of humidity.
For each product, the dose is noted which causes diarrhoea in 50% of the animals according to the method of Miller and Tainter (Proc. Soc. Exp. Biol. Med., 57, 261, 1944).

[4] = Acute toxicity, oral; set-up: species or system mice; conditions: mouse, in vivo, mortality during 7 days
Protocol: The test was carried out on male mice (CD1 Charles Rivers), of 22 to 24 g, having fasted for 16 hours. […] The mortality is noted during the 7 days following the treatment.

[5] = system: ileum isolated from guinea-pig; assay: Test of ileum isolated from guinea-pig, agonist (contracting) activity; conditions: Cavia porcellus; negative logarithm of the dose which produces 50% of the maximum effect; read-out: pD2 (converted)
Protocol: Pieces of ileum are removed from guinea-pigs killed by decapitation. The isolated ileum is placed in 10 cm^3 of Tyrode solution at 37° C. and aerated with a mixture of oxygen (95%) and carbon dioxide gas (5%). The contractions due to the products are registered by means of a detector connected to a polygraph. The products to be tested are added at concentrations between 1.10^-3 M and 1.10^-8 M/l.
The products presenting a contracting effect are tested vis-a-vis atropine and hexamethonium in order to establish if the activity is of "muscarine" or "nicotine" type.
The agonist activity is expressed in pD2 (negative logarithm of the dose which produces 50% of the maximum effect).

[6] = system: male mice (CD1 Charles RAivers); assay: Hypothermic activity; assay type: in vivo; conditions: Mus musculus, read-out: Effective dose (-1° C.)
Protocol: as §1
The temperature of the body is noted by means of a thermocouple inserted about 1.5 cm in the rectum and connected to an electric temperature recorder.
The products are administered by oral or sub-cutaneous route and the temperatures are noted at the instant 0 and at 30 minutes, 1 hour, 2 hours and 2 and a half hours after treatment.
The degree of hypothermia is evaluated as the difference between the treated animals and the controls, and the dose necessary to reduce the body temperature by 1° C. is noted.

[7] = system: patients having a memory defect; conditions: injected by intravenous route; cited from earlier work
[8] = system: central cholinergic system; conditions: cited from earlier work

| SMILES | Solubility in 2N HCl [2] | Solubility in 2N NaOH [2] | Solubility in water [2] | ED50 [3] [mg/kg] | LD50 at 168 h [4] [mg/kg] | EC50 [5] [µM] | ED (-1 C) ([6]; O.R. (oral route)) [mg/kg] | ED (-1 C) ([6]; SC.R (sub-cutaneous route)) [mg/kg] | other results |
| --- | --- | --- | --- | --- | --- | --- | --- | --- | --- |
| C#CCON=CC1=CCCN(O)C1 [Example 4, Hydrochloride of the propargyl ether of 1-hydroxy-1,2,5,6-tetrahydropyridin-3-carboxaldehyde oxime] | Soluble | Soluble | Soluble | 0.9 | 80 | 5.75 | 0.48 | 0.49 | Variations of the body temperature ([1]; os, 0.75 mg/kg, 30 min): -1.6 °C; Variations of the body temperature ([1]; os, 0.75 mg/kg, 60 min): -1.0 °C; Variations of the body temperature ([1]; os, 0.75 mg/kg, 180 min): -0.1 °C; Variations of the body temperature ([1]; sc, 0.75 mg/kg, 30 min): -1.4 °C; Variations of the body temperature ([1]; sc, 0.75 mg/kg, 60 min): -1.1 °C; Variations of the body temperature ([1]; sc, 0.75 mg/kg, 120 min): -0.1 °C |
| CON=CC1=CCCN(OC(C)=O)C1 [Example 3, Hydrochloride of the methyl ether of 1-acetoxy-1,2,5,6-tetrahydropyridin-3-carboxaldehyde oxime] | soluble | insoluble | insoluble | 0.5 | 100 | 12.6 | 0.22 | 0.2 | Variations of the body temperature ([1]; os, 0.25 mg/kg, 30 min): -1.2 °C; Variations of the body temperature ([1]; os, 0.25 mg/kg, 60 min): -0.7 °C; Variations of the body temperature ([1]; os, 0.25 mg/kg, 120 min): +0.1 °C; Variations of the body temperature ([1]; os, 0.25 mg/kg, 180 min): +0.1 °C; Variations of the body temperature ([1]; sc, 0.25 mg/kg, 30 min): -1.2 °C; Variations of the body temperature ([1]; sc, 0.25 mg/kg, 60 min): -0.8 °C; Variations of the body temperature ([1]; sc, 0.25 mg/kg, 120 min): +0.1 °C; Variations of the body temperature ([1]; sc, 0.25 mg/kg, 180 min): +0.1 °C |
| COC(=O)C1=CCCN(C)C1 [arecoline] |  |  |  | 35 |  | 0.331 |  |  | effect on patients having a memory defect [7]: positive effect; duration of action ([8]; in vivo): short duration of action; activity by oral route ([8]; oral route): very weak activity |
